Measurements as given in the supplement of paper PMC10307832.

How the values were obtained:
Assay in all cases: relative viability (nuclei count vs DMSO), 5 days (fraction); higher = more cells survive
[1] = compound: C[C@@H](N)c1ccc(C(=O)Nc2ccnc3[nH]ccc23)cc1 + O=C(CCCCCCC(=O)Nc1ccccc1)NO [Vorinostat] (partner 1 µM)
How it was run: (§1)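 Relative viability is defined as nuclei in treated wells over nuclei in vehicle wells. Duplicate plates were run and medians reported. Lung cancer cell lines in 1536-well plates were dosed by pin tool one day after seeding, with one drug or with a fixed anchor-drug dose plus five library-drug doses (not always all listed) in √10 steps, and nuclei were counted after 5 days.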

Tanzisertib + Tozasertib = compound: O[C@H]1CC[C@H](Nc2ncc3nc(Nc4c(F)cc(F)cc4F)n([C@H]4CCOC4)c3n2)CC1 [Tanzisertib] + Cc1cc(Nc2cc(N3CCN(C)CC3)nc(Sc3ccc(NC(=O)C4CC4)cc3)n2)n[nH]1 [Tozasertib] (partner 0.1 µM)
How it was run: as §1

Tanzisertib + Dasatinib = compound: O[C@H]1CC[C@H](Nc2ncc3nc(Nc4c(F)cc(F)cc4F)n([C@H]4CCOC4)c3n2)CC1 [Tanzisertib] + Cc1nc(Nc2ncc(C(=O)Nc3c(C)cccc3Cl)s2)cc(N2CCN(CCO)CC2)n1 [Dasatinib] (partner 0.075 µM)
How it was run: as §1

[2] = compound: C[C@@H](N)c1ccc(C(=O)Nc2ccnc3[nH]ccc23)cc1 + Cc1nc(NC(=O)N2CCC[C@H]2C(N)=O)sc1-c1ccnc(C(C)(C)C(F)(F)F)c1 [Alpelisib] (partner 2 µM)
How it was run: as §1

| Cell Line | relative viability ([1]; first compound 0.04 µM) | relative viability ([1]; first compound 0.1265 µM) | relative viability ([1]; first compound 0.4 µM) | relative viability ([1]; first compound 4 µM) | relative viability (Tanzisertib + Tozasertib; first compound 0.08 µM) | relative viability (Tanzisertib + Tozasertib; first compound 0.253 µM) | relative viability (Tanzisertib + Tozasertib; first compound 0.8 µM) | relative viability (Tanzisertib + Tozasertib; first compound 2.53 µM) | relative viability (Tanzisertib + Tozasertib; first compound 8 µM) | relative viability (Tanzisertib + Dasatinib; first compound 0.08 µM) | relative viability (Tanzisertib + Dasatinib; first compound 0.253 µM) | relative viability (Tanzisertib + Dasatinib; first compound 0.8 µM) | relative viability (Tanzisertib + Dasatinib; first compound 2.53 µM) | relative viability (Tanzisertib + Dasatinib; first compound 8 µM) | relative viability ([2]; first compound 0.04 µM) | relative viability ([2]; first compound 0.1265 µM) | relative viability ([2]; first compound 0.4 µM) | relative viability ([2]; first compound 1.265 µM) | relative viability ([2]; first compound 4 µM) | relative viability ([1]; first compound 1.265 µM) |
| --- | --- | --- | --- | --- | --- | --- | --- | --- | --- | --- | --- | --- | --- | --- | --- | --- | --- | --- | --- | --- |
| NCI-H2023 | 0.645 | 0.621 | 0.863 | 0.819 | 0.479 | 0.431 | 0.409 | 0.321 | 0.2 | 0.677 | 0.616 | 0.536 | 0.606 | 0.497 | 0.684 | 0.681 | 0.836 | 0.681 | 0.608 | – |
| LC-2-ad | 0.497 | 0.736 | 0.713 | 0.369 | 0.479 | 0.412 | 0.495 | 0.415 | 0.34 | 0.789 | 0.642 | 0.686 | 0.684 | 0.403 | 0.894 | 0.862 | 0.807 | 0.843 | 0.61 | 0.476 |
| NCI-H1666 | 1.1 | 1.05 | 1.22 | 1.31 | 0.609 | 0.698 | 0.611 | 0.656 | 0.592 | 0.821 | 0.843 | 0.755 | 0.841 | 0.955 | 0.973 | 1.12 | 1.18 | 1.36 | 1.16 | 1.5 |
| 201T | 0.909 | 0.886 | 0.981 | 1.24 | 0.989 | 0.923 | 0.943 | 0.866 | 0.875 | 0.546 | 0.608 | 0.537 | 0.496 | 0.582 | 1.06 | 1.01 | 1.01 | 1.06 | 1.24 | 0.891 |
| NCI-H2009 | 0.617 | 0.703 | 0.683 | 0.632 | 0.804 | 0.72 | 0.775 | 0.754 | 0.661 | 0.324 | 0.318 | 0.296 | 0.308 | 0.24 | 1.11 | 1.13 | 1.1 | 0.996 | 0.786 | 0.703 |
| NCI-H1395 | 0.622 | 0.772 | 0.704 | 0.796 | 0.869 | 0.773 | 0.783 | 0.687 | 0.712 | 0.439 | 0.428 | 0.406 | 0.437 | 0.375 | 1.07 | 0.976 | 0.996 | – | 0.838 | – |
| NCI-H2228 | 0.832 | 0.576 | 0.638 | 0.56 | 0.333 | 0.385 | 0.241 | 0.254 | 0.238 | 0.624 | 0.524 | 0.537 | 0.462 | 0.433 | 0.822 | 0.824 | 0.934 | 0.766 | 1.01 | 0.976 |
| LU99A | – | 0.529 | 0.503 | 0.366 | 0.256 | 0.284 | 0.276 | 0.259 | 0.298 | 0.585 | 0.629 | 0.556 | 0.557 | 0.496 | 0.554 | 0.554 | 0.562 | 0.545 | 0.52 | 0.418 |
| NCI-H1437 | 0.882 | 0.874 | 0.991 | 1.03 | 0.451 | 0.394 | 0.407 | 0.381 | 0.384 | 0.527 | 0.465 | 0.393 | 0.365 | 0.439 | 0.899 | 0.935 | 0.945 | 0.934 | 0.764 | 1.02 |
